In patent US9464120B2, “Compositions for treatment of celiac disease” (ImmusanT, Inc., priority 2008, dated 2016):
Square brackets hold non-standard residues; d marks the D form. Peptide text beside a SMILES is read from it. pGlu = O=C1CC[C@@H](C(=O)O)N1

Tests used:
[1] = system: CD4+ T cells specific for NPL001; test: Proliferation of transferred CFSE labelled NPL001-specific CD4+ T cells after subcutaneous administration (adoptive transfer model); assay type: in vivo; conditions: previous mouse studies
From the text: The interaction between NPL001 (SEQ ID NO:228) and cognate T cells in vivo has been modelled by developing transgenic Black-6 mice expressing functional HLA-DR3 and -DQ2 (but not murine MHC Class II molecules) on antigen presenting cells (APC) who are transferred 3×10^6 CFSE labelled CD4^+ T cells specific for NPL001 (Chen Z., et al., 2006). The donor mouse (HH8-1) is transgenic for the NPL001-specific T cell receptor and human CD4 expressed on T cells, and also expresses HLA-DR3 DQ2 on APC. Overall 96% of the CD4^+ T cells in the HH8-1 mouse are clonal and specific for NPL001 (results not shown).
Four days after subcutaneous administration (in the hind foot hock) of an equimolar mixture of NPL001, NPL002 and NPL003 in 50 μl saline, spleen, gut-draining mesenteric lymph nodes (MLN) and the local draining popliteal lymph nodes (PLN) are harvested. Isolated mononuclear cells are stained for hCD4, and the T-cell receptor α- and β-chains expressed on the HH8-1 NPL001-specific T cells (Vα8 and Vβ8). Proliferation of transferred CFSE labelled cells is measured as the % CFSE^pos cells having undergone one or more division, as indicated by dilution of CFSE staining.

[2] = Pharmacokinetics after bolus intradermal injection in an adult rat; assay type: in vivo
Protocol: To improve their chemical stability and increase resistance to exopeptidases, peptides were synthesised as acetate salts of “capped” N-pyroglutamate, C-amide: NPL001 (SEQ ID NO:228), NPL002 (SEQ ID NO:229) and NPL003 (SEQ ID NO:230) 15mers or 16mers with glutamate at sites predicted to be deamidated by tTG. Indeed, capping extended the half-lives of peptides from 10-12 minutes for free peptides: NPL033, NPL038, and NPL034 (SEQ ID NOs:13, 320 and 321) after bolus intradermal injection of 0.9 mg in 0.1 ml in an adult rat to 26-28 minutes with N-pyroglutamate and C-amidation (SEQ ID NOs:228, 229 and 230) or 19-24 minutes with N-acetylation and C-amidation (SEQ ID NOs:231, 232, and 233), (see Table 4).

T1/2 half life ([2]; adult rat, intradermal bolus injection 0.9 mg in 0.1 ml saline of equimolar mixture): T1/2 28.20 minutes
AUC area under the curve (bioavailability) ([2]; rat, in vivo, 0.9 mg): AUC 89350
half-life ([2]; rat, in vivo, intradermal bolus injection, 0.9 mg, adult rat, intradermal bolus injection 0.9 mg in 0.1 ml saline of equimolar mixture, read-out: T1/2 half life): 26 to 28 min
Structure (SMILES): CC(C)C[C@H](NC(=O)[C@@H]1CCC(=O)N1)C(=O)N[C@@H](CCC(N)=O)C(=O)N1CCC[C@H]1C(=O)N[C@@H](Cc1ccccc1)C(=O)N1CCC[C@H]1C(=O)N[C@@H](CCC(N)=O)C(=O)N1CCC[C@H]1C(=O)N[C@@H](CCC(=O)O)C(=O)N[C@@H](CC(C)C)C(=O)N1CCC[C@H]1C(=O)N[C@@H](Cc1ccc(O)cc1)C(=O)N1CCC[C@H]1C(=O)N[C@@H](CCC(N)=O)C(=O)N1CCC[C@H]1C(=O)N[C@@H](CCC(N)=O)C(N)=O [NPL001, pyroELQPFPQPELPYPQPQ-amide] ([pGlu]LQPFPQPELPYPQPQ-NH2)
bioactivity in vivo of a single dose [1]: bioactive in vivo
